Reference: patent US5254801A, “Heterologous dominant conditional lethal gene which is a phosphonate monoester hydrolase and use thereof in plants” (Monsanto Company, priority 1990, dated 1993)

What was measured:
[1] = test system: E. coli MM294, JM101, JM101/MPU+, SR200/MPU; experiment: In vivo (3-14C-) glyceryl glyphosate hydrolysis assay in whole cells; assay type: cell-based; settings: E. coli strains; three hour incubation, 30° C.
[2] = test system: PG2982; experiment: Growth on glyceryl glyphosate as sole phosphate source; assay type: cell-based, Pseudomonas caryophilli; settings: strain PG2982; 0.2 mM in DF minimal medium
Method: Bacteria capable of degrading glyphosate are known (Hallas et al., 1988; Malik et al., 1989; and Moore et al., 1983; Heitkamp et al., 1990). Five of these bacteria (PG2482, LBAA, T10, T12 and CP4) and four strains of E. coli were screened for the rapid degradation of glyceryl glyphosate into inorganic phosphate. The bacteria were inoculated into 2 ml Dworkin-Foster(DF) minimal medium containing glucose, sodium gluconate and potassium citrate (each 0.1%) as carbon source and containing 0.2 mM glyceryl glyphosate as a phosphate source. The Dworkin-Foster minimal medium was made by combining 1 liter sterile H2 O with 1 ml each of A, B, C, E and F, 10 ml D, C-sources to final concentration of 0.1% each and P-source to 0.2 mM.
Bacteria which grew in this medium using glyceryl glyphosate as a sole phosphate source had the ability to cleave both the ester and the phosphonate bond to release the free phosphate. For these bacteria to be useful in the present invention, the first step in the mineralization of glyceryl glyphosate needed is the hydrolysis of the phosphonate ester. […] After a three hour incubation period, the cells were pelleted in a microfuge and the supernatant injected onto an HPLC anion exchange column and glyphosate analyzed as described above. […] The pellet extract was then analyzed for glyphosate product as described above. […]

[3] = test system: pMON9429 transgenic Arabidopsis calli (pehA:1); experiment: Callus viability on SIM medium with glyceryl glyphosate; assay type: cell-based
Method: (§1) Arabidopsis was cultured and transformed essentially as described by Valvekens et al., 1988. Arabidopsis ecotype RLD seeds were sterilized in 5% chlorox, 0.05%. Tween20 for 20 min, washed with sterile H2 O and plated on MSO medium (MS salts with minimal organics (Sigma), 0.5 g MES/l pH 5.7, 1% sucrose and 0.8% agar). After 3 weeks the roots were cut away from the shoots and precultured 3 days on callus inducing medium (CIM; Gamborg's B5 salts (Sigma), 2% glucose, 0.5 g/l MES, pH 5.7, 0.8% agar, 0.5 mg/l 2,4-D and 0.05 mg/l kinetin). The roots were than grouped in small bundles of 5-7 roots and cut into 0.5 cm pieces. The root pieces were mixed with a fresh overnight culture of ABI Agrobacterium containing a previously described plant gene expression vector diluted 1:20 in liquid MSO (without agar). After two minutes, the roots were transferred to fresh CIM plates for a two day co-culture. After co-culture, the root pieces were washed 2X with liquid MSO medium and plated on shoot inducing medium (SIM; Gamborg's B5 salts, 2% glucose, 0.5 g/l MES, pH 5.7, 5 mg/l N^6 -(2-isopentenyl)adenine, 0.15 mg/l indole-3-acetic acid, 500 mg/l carbenicillin, 100 mg/l kanamycin and 0.8% agar. Callus which continued to grow and remain green were transformed to fresh SIM after two weeks. As rosettes began to form, they were cut away from the callus and transferred to MSO medium with 1 mg/l indole-3-butyric acid in sterile sundae cups to initiate root formation. After the plants had formed roots they were transferred to soil and grown to maturity to obtain seed.
(§2) Arabidopsis calli transformed with either pMON9429 or pMON9443 which were expressing the selectable marker NPT-II gene as evidenced by growth on 100 μg/ml kanamycin were then evaluated for pehA expression. The calli were transferred to SIM medium containing 100 μg/ml kanamycin and 1 mM glyceryl glyphosate. After 4 weeks, calli were scored for growth and ability to initiate shoots and leaves (+) or for necrosis (-).

[4] = test system: GUS vector control Arabidopsis calli; experiment: as above; assay type: cell-based
Method: as §1, §2

[5] = test system: pMON9443 transgenic Arabidopsis calli (pehA:2); experiment: as above; assay type: cell-based
Method: as §1, §2

[6] = Storage stability of radioactive glyceryl glyphosate; assay type: physicochemical; settings: radioactive compound stored at -20° C. over a period of 3 months
[7] = 1 mM glyceryl glyphosate, 4 weeks, 6 lines scored
[8] = 1 mM glyceryl glyphosate, 4 weeks, 12 lines scored

O=C(O)CNCP(=O)(O)OCC(O)CO (stereo not drawn) [glyceryl glyphosate, glycine, N-([hydroxy (2,3 dihydroxy propoxy)phosphonyl]methyl)]
In vivo Hydrolysis of Glyceryl Glyphosate into Glyphosate [1]: No
Glyceryl Glyphosate as Phosphate Source [2]: Yes
Viability Score: Growth [3, 7]: 1 number of lines
Viability Score: Necrosis [3, 7]: 5 number of lines
Callus phenotype on protoxin (in words) ([3]; medium containing glyceryl glyphosate, pMON9429 calli): lethality
Viability Score: Growth [4, 8]: 12 number of lines
Viability Score: Necrosis [4, 8]: 0 number of lines
Callus growth on protoxin (in words) ([4]; 1 mM protoxin, control calli): able to grow
Viability Score: Growth [5, 7]: 0 number of lines
Viability Score: Necrosis [5, 7]: 6 number of lines
Callus phenotype on protoxin (in words) ([5]; medium containing glyceryl glyphosate, pMON9443 calli): lethality
Storage stability [6]: unstable
